Source: patent publication US20160002267A1, “BENZYL-SUBSTITUTED PYRAZOLOPYRIDINES AND USE THEREOF” (BAYER PHARMA AKTIENGESELLSCHAFT, priority 2013, published 2016)

How the values were obtained:
guanylate cyclase = molecular target: T1, guanylate cyclase (Rattus norvegicus, UniProt P19686+P20595); test: Effect on a recombinant guanylate cyclase reporter cell line; format: cell-based
T1 construct: expressed in transfected cells; host or cells: recombinant reporter cell line
T1 sequence (P20595 1-619): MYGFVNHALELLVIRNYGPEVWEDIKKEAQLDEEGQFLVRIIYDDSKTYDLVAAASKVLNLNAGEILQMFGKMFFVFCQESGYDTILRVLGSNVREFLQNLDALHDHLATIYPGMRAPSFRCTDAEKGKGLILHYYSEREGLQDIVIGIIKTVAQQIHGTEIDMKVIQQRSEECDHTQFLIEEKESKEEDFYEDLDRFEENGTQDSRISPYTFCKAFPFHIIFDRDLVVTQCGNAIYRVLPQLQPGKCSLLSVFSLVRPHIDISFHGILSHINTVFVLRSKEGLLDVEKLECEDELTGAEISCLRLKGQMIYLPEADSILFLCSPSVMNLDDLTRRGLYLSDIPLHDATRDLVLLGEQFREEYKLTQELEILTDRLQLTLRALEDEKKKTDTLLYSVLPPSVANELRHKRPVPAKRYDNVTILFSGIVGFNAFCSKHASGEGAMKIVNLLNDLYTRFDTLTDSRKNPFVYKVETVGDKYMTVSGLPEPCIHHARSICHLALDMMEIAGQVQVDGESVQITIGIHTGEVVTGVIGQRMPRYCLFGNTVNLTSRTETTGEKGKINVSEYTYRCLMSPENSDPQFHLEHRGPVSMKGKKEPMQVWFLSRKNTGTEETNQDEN
T1 sequence (P19686 1-690): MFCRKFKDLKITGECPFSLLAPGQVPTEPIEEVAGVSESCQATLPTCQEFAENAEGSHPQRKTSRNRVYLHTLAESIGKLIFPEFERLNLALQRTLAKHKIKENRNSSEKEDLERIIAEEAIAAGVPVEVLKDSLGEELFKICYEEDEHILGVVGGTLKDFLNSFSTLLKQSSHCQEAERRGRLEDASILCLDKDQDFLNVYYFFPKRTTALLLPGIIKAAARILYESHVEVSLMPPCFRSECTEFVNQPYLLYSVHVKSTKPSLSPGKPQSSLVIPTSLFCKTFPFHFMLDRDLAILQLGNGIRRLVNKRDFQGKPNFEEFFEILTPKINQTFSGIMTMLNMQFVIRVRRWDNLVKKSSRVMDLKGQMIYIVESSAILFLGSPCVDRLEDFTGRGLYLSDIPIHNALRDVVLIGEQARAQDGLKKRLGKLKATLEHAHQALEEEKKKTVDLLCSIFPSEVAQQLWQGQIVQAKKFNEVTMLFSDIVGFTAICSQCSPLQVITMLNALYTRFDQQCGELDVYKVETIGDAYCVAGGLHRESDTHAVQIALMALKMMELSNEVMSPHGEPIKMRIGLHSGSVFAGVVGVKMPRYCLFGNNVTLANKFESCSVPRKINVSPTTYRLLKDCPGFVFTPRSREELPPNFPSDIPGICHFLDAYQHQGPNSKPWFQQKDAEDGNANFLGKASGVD
Procedure: The cellular activity of the compounds according to the invention is determined using a recombinant guanylate cyclase reporter cell line, as described in F. Wunder et al., Anal. Biochem. 339, 104-112 (2005).

[1] = Determination of pharmacokinetic parameters following intravenous and oral administration; format: in vivo, rat; details: rats, intravenous administration of 0.3 mg/kg and peroral administration of 1 mg/kg
Procedure: The pharmacokinetic parameters of the compounds of the formula (I) according to the invention are determined in male CD-1 mice, male Wistar rats and female beagles. Intravenous administration is via a formulation of species-specific plasma/DMSO in the case of mice and rats and via a water/PEG400/ethanol formulation in the case of dogs. For all species, oral administration of the dissolved substance via gavage is carried out based on a water/PEG400/ethanol formulation. The removal of blood from rats is simplified by inserting a silicone catheter into the right Vena jugularis externa prior to substance administration. The surgical intervention takes place at least one day prior to the experiment with isofluran anesthesia and administration of an analgetic (atropine/rimadyl (3/1) 0.1 ml s.c.). The removal of blood (generally more than 10 times) takes place in a time window which contains terminal times of at least 24 to a maximum of 72 hours after administration of the substance. The blood is removed into heparinized tubes. The blood plasma is then obtained by centrifugation; if required, it can be stored at −20° C. until further processing.
An internal standard (this can also be a chemically unrelated substance) is added to the samples of the compounds of the formula (I) according to the invention, calibration samples and qualifiers, and the protein is precipitated using excess acetonitrile. After addition of a buffer solution, which is adapted to the LC conditions, and subsequent vortexing, the mixture is centrifuged at 1000 g. The supernatant is examined by LC-MS/MS using C18-reversed-phase columns and variable mobile phase mixtures. The substances are quantified by peak heights or areas using extracted ion chromatograms of specific selected ion monitoring experiments.
The plasma concentration/time plots determined are used to calculate the pharmacokinetic parameters such as AUC (Area Under the Curve), Cmax, t1/2 (terminal half life), F (bioavailability), MRT (mean residence time) and CL (clearance), using a validated pharmacokinetic calculation program.
Since the substance quantification is performed in plasma, it is necessary to determine the blood/plasma distribution of the substance in order to be able to adjust the pharmacokinetic parameters correspondingly. For this purpose, a defined amount of substance is incubated in heparinized whole blood of the species in question in a rocking roller mixer for 20 min. After centrifugation at 1000 g, the plasma concentration is measured (by means of LC-MS/MS; see above) and determined by calculating the quotient of the Cblood/Cplasma values.

SMILES: CC1(C(F)(F)F)C(=O)Nc2nc(-c3nn(Cc4ccccc4F)c4ncc(F)cc34)nc(NCCC(F)(F)F)c21 (single isomer, unassigned) [Example 1-1, 2-[5-Fluoro-1-(2-fluorobenzyl)-1H-pyrazolo[3,4-b]pyridin-3-yl]-5-methyl-5-(trifluoromethyl)-4-[(3,3,3-trifluoropropyl)amino]-5,7-dihydro-6H-pyrrolo[2,3-d]pyrimidin-6-one]
- MEC (minimum effective concentration) (guanylate cyclase): 0.1 µM
- MRT ([1]; male, Wistar, rat, plasma): 6.4 h
- half-life ([1]; male, Wistar, rat, plasma): 7.8 h
- AUCnorm [1]: 0.83 kg·h/L
- CLblood [1]: 23.7 mL/min/kg
- F [1]: 39.0%
